The source of these data is paper PMC9521028, “Lengthening the Guanidine–Aryl Linker of Phenylpyrimidinylguanidines Increases Their Potency as Inhibitors of FOXO3-Induced Gene Transcription” (ACS Omega, 2022).

One data set deals with FOXO3. On the set-up: method as in PMID 31591479, PMID 31789593. The note with it: inhibit the transcriptional program of FOXO3; cited from earlier work.
A short description of data set [1]: Estimation of compound solubility in water (saturated solution, UV-vis). In kind it is physicochemical. The note with it: aqueous buffer, thermodynamic from solid; 20 mM phosphate (pH 6.5) and 50 mM KCl buffer at 23 °C. The protocol: To estimate the solubility, we prepared saturated solutions of the compounds by adding 5 mg of each selected compound to 700 μL of 20 mM phosphate buffer (pH 6.5) containing 50 mM KCl. After 48 h of gentle agitation at room temperature (RT), the solutions were spun down, and the supernatant was filtered through 0.2 μm of SPARTAN 13/0.2 RC filter units (Merck KgaA, Darmstadt, Germany) and diluted 100–200× in the same phosphate buffer. The diluted solutions were transferred into the quartz cuvette, recording UV–vis absorption spectra in the range from 200 to 600 nm on a UV-1800 UV/visible scanning spectrophotometer (Shimadzu, Kyoto, Japan) at room temperature. The compound concentrations were estimated by the single point calibration using the absorption at wavelengths higher than 240 nm outside of DMSO absorption of 2000× diluted 50 mM DMSO-dissolved stock solution in phosphate buffer.

Data set [2] deals with T1, recombinant DNA-binding domain of human FOXO3 (residues 156–269, FOXO3-DBD) (Homo sapiens, UniProt O43524).
T1 construct: DNA encoding human FOXO3-DBD (residues 156–269); GST (N, cleaved yes); made in house; host or cells: E. coli BL21(DE3)
T1 sequence (O43524 156-269): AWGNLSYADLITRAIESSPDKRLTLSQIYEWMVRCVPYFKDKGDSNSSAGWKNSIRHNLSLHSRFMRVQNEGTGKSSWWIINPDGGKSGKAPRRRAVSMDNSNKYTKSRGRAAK
The experiment in a line: Fluorescence polarization (FP) assay of FOXO3-DBD binding to FAM-labeled IRE dsDNA. The note with it: compound 1 μM; 125 nM FOXO3-DBD, 25 nM FAM-dsDNA. Background: Polarisation of emitted light reports the rotation of a fluorescent probe.
Description: The FOXO3 inhibition potency of the phenylpyrimidinylguanidine derivatives was first examined in a fluorescence polarization (FP) assay using the recombinant DNA-binding domain of human FOXO3 (residues 156–269, denoted as FOXO3-DBD) and FAM-labeled dsDNA containing the insulin-response element (IRE) consensus motif (Figure S1).
The final concentration of DMSO in all mixtures was adjusted to 5% (v/v). Positive (only assay buffer and FAM-labeled oligonucleotide) and negative (FOXO3-DBD and FAM-labeled oligonucleotide) controls were analyzed on each plate. Milli polarization values (mP) were measured at an excitation wavelength of 485 nm and an emission wavelength of 530 nm.

Data set [3] deals with FOXO3-induced apoptotic cell death in SH-EP/FOXO3 neuroblastoma cells. The experiment in a line: Resazurin early cell death evaluation assay. In kind it is cell-based. The note with it: for IC50: Neuroblastoma cell, 100 nM 4OHT, 24 h, approximate, toxicity prevented accurate determination, read-out: IC50, inhibition of FOXO3-induced cell death; for IC50 / concentration above which the compound is toxic (spontaneous cell death): SH-EP/FOXO3 cells. The protocol:
Moreover, we also attempted to determine the IC50 values of 5ci, 5cj, and 5db using a resazurin early cell death evaluation assay in cells expressing a conditional FOXO3 allele that triggers apoptotic cell death upon activation.
Neuroblastoma cells SH-EP/FOXO3 were seeded into 96-well plates and treated with concentrations 0.05, 0.1, 0.2, 0.39, 0.78, 1.56, 3.125, 6.25, 12.5, 18.75, and 25 μM of 5ca and its derivatives 30 min before activating ectopic FOXO3 by 100 nM 4OHT. For 5ca derivatives, concentrations above 3.125 μM had to be excluded from the analysis due to spontaneous cell death induction. Resazurin salt (Sigma-Aldrich s.r.o., St. Louis, Missouri) was diluted to a final concentration of 0.01% (wt/vol), and 20 μL of this dilution was added to 200 μL of the cell culture in each well 24 h after FOXO3 activation. Resazurin is reduced in viable cells to red-fluorescent resoflurin, which was quantified in a Hidex Chameleon—Multilabel Microplate Reader (Hidex, Turku, Finland) at filter settings 544 nm Ex/616 nm Em.
Background: The colour change of resazurin is a common sign of viable cells or microbes.

The next data set concerns the target T2, FOXO3-DBD (Homo sapiens, UniProt O43524).
T2 construct: DNA encoding human FOXO3-DBD (residues 156–269); GST (N, cleaved yes); made in house; host or cells: E. coli BL21(DE3)
Description: NMR (1H STD and 1H-15N HSQC titration) of compound binding to FOXO3-DBD. The note with it: 15 μM FOXO3-DBD, 1 mM compound, pH 6.5, 298 K. The protocol: STD experiment was performed at 298 K on a Bruker Avance III HD 850 MHz spectrometer (Bruker, Billerica, Massachusetts) equipped with a ^13C/^1H/^15N cryoprobe. The 550 μL sample contained 15 μM FOXO3-DBD and 1 mM 5cj in 20 mM phosphate buffer (pH 6.5) supplemented by 50 mM KCl and 10% ^2H2O. ^1H STD NMR was performed using a standard “stddiffesgp” pulse sequence with excitation sculpting and pulse-field gradients for water suppression. On-resonance irradiation was done at −0.54 ppm and off-resonance irradiation at 30 ppm, using a 50 ms shaped Eburp2.1000 pulse of power 40 dB for a saturation time of 3 s. The difference spectra were obtained by subtracting the on-resonance spectrum from the off-resonance spectrum. The spectra were analyzed using TopSpin software (v3.6).
2D ^1H–^15N HSQC spectra were acquired on both Bruker Avance III HD 850 MHz and Bruker Avance III 600 MHz (Bruker, Billerica, Massachusetts) spectrometers equipped with a ^13C/^1H/^15N cryoprobe. All HSQC experiments were measured at 298 K in Shigemi NMR tubes (Shigemi Co., Ltd., Tokyo, Japan) containing 350 μL of sample in 100 mM phosphate buffer (pH 6.5) supplemented with 50 mM KCl and 10% ^2H2O. […] All spectra were processed in TopSpin software (v3.6) and evaluated in Sparky software (v3.1).[43] CSP values obtained from 2D ^1H–^15N HSQC experiments were calculated using the following formula[44] […]

For data set [4], the system named is FOXO3 binding to the promoter region of DEPP1 in SH-EP/FOXO3 cells. The experiment in a line: DEPP1-luciferase reporter assay of FOXO3 transcriptional activity. It counts as cell-based. The protocol:
(§1) The ability of these compounds to inhibit FOXO3 transcriptional activity was further examined by assessing their effect on FOXO3 binding to the promoter region of decidual protein induced by progesterone 1 (DEPP1) after transfecting a DEPP1-luciferase reporter plasmid into SH-EP neuroblastoma cells stably expressing a 4-hydroxy-tamoxifen (4OHT)-regulated FOXO3(A3)ERtm transgene. […] In parallel, the toxicity of the compounds was tested by assessing their effect on endogenous DEPP1 and actin promoters in SH-EP cells.
Transcriptional activation of the DEPP1 promoter by conditional FOXO3 was assessed after transfection of a DEPP1-luciferase reporter plasmid pGS c10orf10 Prom wt (DEPP1-LUC)[20] into SH-EP/FOXO3 cells using the JetPrime reagent (Polyplus, Berkeley). After 24 h of transfection, mTFP fluorescent protein expression from a cotransfected expression vector was assessed by live cell fluorescence microscopy to verify equal transfection rates before seeding cells into 24-well plates. After 48 h of transfection, the cells were pretreated with indicated concentrations of each compound (30 min) before adding 100 nM 4-hydroxy-tamoxifen (4OHT) for 3 h to activate ectopic FOXO3. Firefly-luciferase was analyzed using the Luciferase Assay System (Promega, Madison). Luminescence intensity was measured in a Hidex Chameleon—Multilabel Microplate Reader (Hidex, Turku, Finland).
On the technique in general: A reporter such as luciferase makes a cellular process visible.

For data set [5], the system named is endogenous DEPP1 and actin promoters in SH-EP cells. The experiment in a line: Toxicity control: endogenous DEPP1 and actin promoter luciferase reporters. In kind it is cell-based. The note with it: 0.78 μM, SH-EP cells. The protocol: as §1
For this purpose, 2 × 10^6 SH-EP cells were transfected with either a DEPP1-LUC-reporter plasmid or an actin-LUC reporter plasmid using JetPrime reagent (Polyplus, Berkeley). Actin-LUC was constructed by inserting a 1.3 kb fragment of the chicken β actin promoter into pGL3-luc reporter vector (Promega, Madison). After 24 h of transfection, the cells were seeded into 24-well plates. After another 24 h, the cells were pretreated with indicated concentrations of compound for 3.5 h. Firefly-luciferase was analyzed using the Luciferase Assay System (Promega, Madison). Luminescence intensity was measured in a Hidex Chameleon—Multilabel Microplate Reader (Hidex, Turku, Finland).

Structures are written as SMILES. In brackets after ≈: the same amount, converted by molar mass.

T2 sequence (O43524 156-269): as above

Broadly, the solubility is the dissolved amount per volume that the medium holds. For orientation: IC50 means the concentration at which inhibition is half-maximal. Take `CCCOc1ccc(NC(=N)Nc2nc(C)cc(C)n2)cc1` [5ca, 1-(4,6-Dimethylpyrimidin-2-yl)-3-(4-propoxyphenyl)guanidine]: in the data set on FOXO3, the “concentration range of FOXO3 inhibition in cancer cells” value is recorded as “low micromolar range”. Moreover, the solubility at 48 h in data set [1] is 2 mM (≈ 599 µg/mL). Also, the “reduction of FOXO3-DBD binding to FAM-IRE dsDNA” value in data set [2] is listed as “approximately 20%”. In data set [3], the IC50 is about 8 µM and the “concentration above which the compound is toxic (spontaneous cell death)” value is listed as “higher than 25 μM”.
Consider `Cc1cc(C)nc(NC(=N)NCCc2ccccc2)n1` [5cj, 1-(4,6-Dimethylpyrimidin-2-yl)-3-phenethylguanidine], for which the “1H STD NMR signals with FOXO3-DBD” value at FOXO3-DBD is on record as “STD signals were detected”. Besides, the “potency in blocking FOXO3 binding to the promoter region of DEPP1” value in data set [4] (25 and 12.5 μM compound) is listed as “the most potent compounds”. For the same compound, the “efficiency of blocking FOXO3 binding to the promoter region of DEPP1” value in data set [4] (lower concentrations, down to 0.78 μM) was “more efficiently than 5cg, 5da, and 5dc”. Moreover, the “inhibition of FOXO3-mediated transcription” value in data set [4] (lowest concentration tested, 0.78 μM) is recorded as “significantly inhibited”. Besides, the “inhibitory potency on target gene activation by FOXO3 (in words)” value in data set [4] (summary of the reporter data, Figures 2, S2, S3) is listed as “highest inhibitory potency”. Moreover, the solubility at 48 h in data set [1] is 13 mM (≈ 3500 µg/mL). Besides, the “effect on endogenous DEPP1 and actin promoters (toxicity markers)” value in data set [5] is “without any effect”. Besides, in data set [3], the IC50 is about 1 µM and the “concentration above which the compound is toxic (spontaneous cell death)” value was “higher than 4 μM”. The “fold lower IC50 than that of 5ca” value in data set [3] (resazurin assay, ratio to 5ca IC50 of ∼8 μM) is recorded as 8–16 ×.
